According to US20250221998A1, “DISCOVERY OF COVALENT EGFR INHIBITOR THROUGH CYSTEINE 775” (Dana-Farber Cancer Institute, Inc., priority 2022, published 2025):

Tests used:
[1] = biological target: EGFR mutant L858R Ba/F3 cells (Homo sapiens, UniProt P00533, L858R, cells depend on it); test: Ba/F3 cell proliferation (Cell Titer Glo), EGFR L858R; type: cell-based, murine; details: 72 hours exposure, read-out: L858R BaF3 (μM), inhibitory activity against EGFR mutants
Excerpt: (§1) The EGFR mutant L858R Ba/F3 cells have been previously described (Zhou, W., et al. Nature 462, 2009, 1070-1074). The EGFR C797S and C775S mutations were introduced via site directed mutagenesis using the Quick Change Site-Directed Mutagenesis kit into a vector containing EGFR L858R mutation (Stratagene; La Jolla, CA) according to the manufacturer's instructions. All constructs were confirmed by DNA sequencing. The constructs were then shuttled into the retroviral vector JP1540 by either using the Cre-recombination system (Agilent Technologies, Santa Clara, CA) or the In-fusion HD Cloning kit (Takara Bio USA, Inc.; Mountain view, CA). Ba/F3 cells were then infected with retrovirus per standard protocols, as described previously (Zhou, et al, Nature 2009). Stable clones were obtained by selection in puromycin (2 ug/ml). All BaF/3 mutant cells were maintained in RPMI 1640 (Cellgro; Mediatech Inc., Herndon, CA) supplemented with 10% FBS, 100 units/mL penicillin, 100 units/mL streptomycin.
(§2) Growth and inhibition of growth was assessed by the Cell Titer Glo assay (Promega, Madison, WI) and was performed according to the manufacturer's instructions. The Cell Titer Glo assay is a luminescence-based method used to determine the number of viable cells based on quantitation of the ATP present, which is directly proportional to the amount of metabolically active cells present. Ba/F3 cells of different EGFR genotypes were exposed to compounds for 72 hours and the number of cells used per experiment was determined empirically as has been previously established (Zhou, et al., Nature 2009). All experimental points were set up in triplicates in 384-well plates. […] The curves were fitted using a non-linear regression model with a sigmoidal dose response.
(§3) For inhibitory activity against EGFR mutants, the following designations are used: ≤0·25 μM=A, 0·25 μM˜0.5 μM=B, 0.5 μM˜2.5 μM=C, ≥2.5 μM=D.

[2] = biological target: EGFR L858R/C797S Ba/F3 cells (Homo sapiens, UniProt P00533, C797S/L858R, cells depend on it); test: Ba/F3 cell proliferation (Cell Titer Glo), EGFR L858R/C797S; type: cell-based, murine; details: 72 hours exposure, read-out: L858R/C797S (μM), inhibitory activity against EGFR mutants
EGFR L858R/C797S Ba/F3 cells, sequence (P00533 whole entry C797S/L858R): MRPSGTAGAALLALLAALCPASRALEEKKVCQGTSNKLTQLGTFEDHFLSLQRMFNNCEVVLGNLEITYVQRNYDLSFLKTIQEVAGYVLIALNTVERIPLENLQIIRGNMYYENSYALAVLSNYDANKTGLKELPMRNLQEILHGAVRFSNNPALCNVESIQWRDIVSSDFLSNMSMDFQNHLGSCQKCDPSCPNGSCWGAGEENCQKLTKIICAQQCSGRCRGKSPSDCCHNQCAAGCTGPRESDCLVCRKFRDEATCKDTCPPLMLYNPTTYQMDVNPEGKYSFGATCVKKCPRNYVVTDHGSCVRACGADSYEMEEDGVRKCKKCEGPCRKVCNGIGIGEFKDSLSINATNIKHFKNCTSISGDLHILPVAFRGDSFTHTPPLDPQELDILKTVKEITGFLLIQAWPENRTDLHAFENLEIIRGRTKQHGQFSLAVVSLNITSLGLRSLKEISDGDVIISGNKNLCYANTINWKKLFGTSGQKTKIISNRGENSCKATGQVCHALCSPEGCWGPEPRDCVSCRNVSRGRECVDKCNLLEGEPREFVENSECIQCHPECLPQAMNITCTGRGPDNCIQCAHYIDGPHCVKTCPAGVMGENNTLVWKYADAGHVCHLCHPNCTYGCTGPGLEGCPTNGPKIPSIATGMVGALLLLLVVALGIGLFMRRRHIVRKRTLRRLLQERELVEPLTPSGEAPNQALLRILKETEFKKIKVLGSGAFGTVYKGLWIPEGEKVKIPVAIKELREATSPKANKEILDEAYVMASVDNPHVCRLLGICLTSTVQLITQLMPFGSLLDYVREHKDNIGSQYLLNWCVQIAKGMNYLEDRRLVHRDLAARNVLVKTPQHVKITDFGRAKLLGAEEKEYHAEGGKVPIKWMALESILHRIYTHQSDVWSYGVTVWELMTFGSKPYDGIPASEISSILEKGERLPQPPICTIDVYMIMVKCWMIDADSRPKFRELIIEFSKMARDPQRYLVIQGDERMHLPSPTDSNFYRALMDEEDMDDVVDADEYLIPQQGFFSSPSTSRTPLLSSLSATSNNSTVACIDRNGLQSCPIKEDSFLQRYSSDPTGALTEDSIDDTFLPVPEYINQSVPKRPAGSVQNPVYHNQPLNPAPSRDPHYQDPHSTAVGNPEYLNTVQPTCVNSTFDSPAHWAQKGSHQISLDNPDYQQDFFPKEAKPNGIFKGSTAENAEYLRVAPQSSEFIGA
Excerpt: as §1, §2, §3

EGFR mutant L858R Ba/F3 cells, sequence (P00533 whole entry L858R, the tested form may be a part): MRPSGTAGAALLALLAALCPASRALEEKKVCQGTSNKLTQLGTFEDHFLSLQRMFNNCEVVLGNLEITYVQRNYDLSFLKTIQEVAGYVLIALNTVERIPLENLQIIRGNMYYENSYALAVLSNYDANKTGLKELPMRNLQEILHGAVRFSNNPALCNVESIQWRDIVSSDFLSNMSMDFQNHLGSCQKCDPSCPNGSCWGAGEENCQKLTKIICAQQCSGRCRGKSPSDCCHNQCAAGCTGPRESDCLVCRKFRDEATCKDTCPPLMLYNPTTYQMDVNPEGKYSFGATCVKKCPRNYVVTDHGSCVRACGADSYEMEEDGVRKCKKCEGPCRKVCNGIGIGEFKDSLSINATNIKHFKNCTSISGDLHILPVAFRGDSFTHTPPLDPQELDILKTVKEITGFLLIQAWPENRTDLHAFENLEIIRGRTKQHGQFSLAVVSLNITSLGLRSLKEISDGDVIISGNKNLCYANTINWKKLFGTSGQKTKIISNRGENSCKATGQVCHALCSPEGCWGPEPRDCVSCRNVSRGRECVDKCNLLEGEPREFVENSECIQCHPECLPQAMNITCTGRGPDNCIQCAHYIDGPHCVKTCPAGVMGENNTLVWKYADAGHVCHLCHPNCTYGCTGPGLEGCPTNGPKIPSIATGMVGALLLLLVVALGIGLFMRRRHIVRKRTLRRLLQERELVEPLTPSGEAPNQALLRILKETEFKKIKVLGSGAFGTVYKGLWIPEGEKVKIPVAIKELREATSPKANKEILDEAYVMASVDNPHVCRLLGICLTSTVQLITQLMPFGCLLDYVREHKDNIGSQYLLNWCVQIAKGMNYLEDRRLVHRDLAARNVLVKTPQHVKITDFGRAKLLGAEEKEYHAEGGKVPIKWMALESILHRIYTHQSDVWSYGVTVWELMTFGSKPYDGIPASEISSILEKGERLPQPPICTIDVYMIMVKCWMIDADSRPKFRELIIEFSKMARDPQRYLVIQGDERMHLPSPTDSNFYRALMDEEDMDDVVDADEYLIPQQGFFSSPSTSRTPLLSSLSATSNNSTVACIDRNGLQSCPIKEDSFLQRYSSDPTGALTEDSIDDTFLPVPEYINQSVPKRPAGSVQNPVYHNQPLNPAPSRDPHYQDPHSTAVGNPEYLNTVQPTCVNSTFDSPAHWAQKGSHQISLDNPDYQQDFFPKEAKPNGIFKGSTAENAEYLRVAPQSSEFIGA

| SMILES | GI50 [1] [µM] | GI50 [2] [µM] |
| --- | --- | --- |
| C=CC(=O)N1CCN(c2cc3cnc(Nc4ccccc4)nc3n([C@H]3C[C@@H](O)C3)c2=O)c2cccc(C)c21 [Compound 069] | ≤ 0.25 | ≤ 0.25 |
| C=CC(=O)N1CCN(c2cc3cnc(Nc4ccccc4)nc3n([C@H]3C[C@H](O)C3)c2=O)c2cccc(C)c21 [Compound 070] | ≤ 0.25 | ≤ 0.25 |
| C=CC(=O)N1CCN(c2cc3cnc(NC4CC4)nc3n(C)c2=O)c2cccc(C)c21 [Compound 083, 2-(cyclopropylamino)-8-methyl-6-(5-methyl-4-prop-2-enoyl-2,3-dihydroquinoxalin-1-yl)pyrido[2,3-d]pyrimidin-7-one] | 0.5 to 2.5 | 0.5 to 2.5 |
| C=CC(=O)N1CCN(c2cc3cnc(Nc4ccccc4)nc3n(C3CC(OC)C3)c2=O)c2cccc(C)c21 (centres unmarked) [Compound 084, 2-anilino-8-(3-methoxycyclobutyl)-6-(5-methyl-4-prop-2-enoyl-2,3-dihydroquinoxalin-1-yl)pyrido[2,3-d]pyrimidin-7-one] | ≤ 0.25 | ≤ 0.25 |
| C=CC(=O)N1CCN(c2cc3cnc(N)nc3n([C@H]3CC[C@H](OC)CC3)c2=O)c2cccc(C)c21 [Compound 086, 2-amino-8-(4-methoxycyclohexyl)-6-(5-methyl-4-prop-2-enoyl-2,3-dihydroquinoxalin-1-yl)pyrido[2,3-d]pyrimidin-7-one] | ≤ 0.25 | ≤ 0.25 |
| C=CC(=O)N1CCN(c2cc3cnc(N)nc3n([C@H]3CC[C@](C)(O)CC3)c2=O)c2cccc(C)c21 [Compound 087, 6-(4-acryloyl-5-methyl-3,4-dihydroquinoxalin-1 (2H)-yl)-2-amino-8-((1r,4r)-4-hydroxy-4-methylcyclohexyl)pyrido[2,3-d]pyrimidin-7 (8H)-one] | ≤ 0.25 | ≤ 0.25 |
| C=CC(=O)N1CCN(c2cc3cnc(N)nc3n([C@H]3CC[C@@](C)(O)CC3)c2=O)c2cccc(C)c21 [Compound 088, 6-(4-acryloyl-5-methyl-3,4-dihydroquinoxalin-1 (2H)-yl)-2-amino-8-((1s,4s)-4-hydroxy-4-methylcyclohexyl)pyrido[2,3-d]pyrimidin-7 (8H)-one] | ≤ 0.25 | ≤ 0.25 |
| C=CC(=O)N1CCN(c2cc3cnc(N)nc3n(-c3ccc(N4CCOCC4)cc3)c2=O)c2cccc(C)c21 [Compound 089, 2-amino-6-(5-methyl-4-prop-2-enoyl-2,3-dihydroquinoxalin-1-yl)-8-(4-morpholinophenyl)pyrido[2,3-d]pyrimidin-7-one] | ≤ 0.25 | ≤ 0.25 |
| C=CC(=O)N1CCN(c2cc3cnc(N)nc3n(-c3cccc(Cl)c3)c2=O)c2cccc(C)c21 [Compound 091, 2-amino-8-(3-chlorophenyl)-6-(5-methyl-4-prop-2-enoyl-2,3-dihydroquinoxalin-1-yl)pyrido[2,3-d]pyrimidin-7-one] | ≤ 0.25 | 0.25 to 0.5 |
| C=CC(=O)N1CCN(c2cc3cnc(N)nc3n(-c3ccc(N4CCN(C)CC4)cc3)c2=O)c2cccc(C)c21 [Compound 092, 2-amino-8-[4-(4-methylpiperazin-1-yl)phenyl]-6-(5-methyl-4-prop-2-enoyl-2,3-dihydroquinoxalin-1-yl)pyrido[2,3-d]pyrimidin-7-one] | ≤ 0.25 | ≤ 0.25 |
| C=CC(=O)N1CCN(c2cc3cnc(N)nc3n(-c3ccc(OC4COC4)cc3)c2=O)c2cccc(C)c21 [Compound 093, 2-amino-6-(5-methyl-4-prop-2-enoyl-2,3-dihydroquinoxalin-1-yl)-8-[4-(oxetan-3-yloxy)phenyl]pyrido[2,3-d]pyrimidin-7-one] | ≤ 0.25 | 0.25 to 0.5 |
| C=CC(=O)N1CCN(c2cc3cnc(N)nc3n(-c3ccc(CN4CCOCC4)cc3)c2=O)c2cccc(C)c21 [Compound 094, 2-amino-6-(5-methyl-4-prop-2-enoyl-2,3-dihydroquinoxalin-1-yl)-8-[4-(morpholinomethyl)phenyl]pyrido[2,3-d]pyrimidin-7-one] | ≤ 0.25 | ≤ 0.25 |

Second part, the molecule after the results:

| GI50 [1] [µM] | GI50 [2] [µM] | SMILES |
| --- | --- | --- |
| ≤ 0.25 | ≤ 0.25 | C=CC(=O)N1CCN(c2cc3cnc(Nc4ccc(OCCN(C)C)cc4)nc3n(-c3cccnc3)c2=O)c2cccc(C)c21 [Compound 067] |
| ≤ 0.25 | ≤ 0.25 | C=CC(=O)N1CCN(c2cc3cnc(Nc4ccc(OCCN(C)C)cc4OC)nc3n(C)c2=O)c2cccc(C)c21 [Compound 068] |
| ≤ 0.25 | ≤ 0.25 | C=CC(=O)N1CCN(c2cc3cnc(Nc4ccc(OCCN(C)C)cc4)nc3n(C3CC(OC)C3)c2=O)c2cccc(C)c21 (centres unmarked) [Compound 071, 2-[4-[2-(dimethylamino)ethoxy]anilino]-8-(3-methoxycyclobutyl)-6-(5-methyl-4-prop-2-enoyl-2,3-dihydroquinoxalin-1-yl)pyrido[2,3-d]pyrimidin-7-one] |
| ≤ 0.25 | ≤ 0.25 | C=CC(=O)N1CCN(c2cc3cnc(Nc4ccc(OCCN(C)C)cc4)nc3n(C3CCOC3)c2=O)c2cccc(C)c21 (centres unmarked) [Compound 072, 2-[4-[2-(dimethylamino)ethoxy]anilino]-6-(5-methyl-4-prop-2-enoyl-2,3-dihydroquinoxalin-1-yl)-8-tetrahydrofuran-3-yl-pyrido[2,3-d]pyrimidin-7-one] |
| ≤ 0.25 | ≤ 0.25 | C=CC(=O)N1CCN(c2cc3cnc(Nc4cc5n(c4)CCN(C)C5=O)nc3n(C)c2=O)c2cccc(C)c21 [Compound 073, 8-methyl-2-[(2-methyl-1-oxo-3,4-dihydropyrrolo[1,2-a]pyrazin-7-yl)amino]-6-(5-methyl-4-prop-2-enoyl-2,3-dihydroquinoxalin-1-yl)pyrido[2,3-d]pyrimidin-7-one] |
| ≤ 0.25 | ≤ 0.25 | C=CC(=O)N1CCN(c2cc3cnc(Nc4ccc(OCCN(C)C)cc4)nc3n(C)c2=O)c2cccc(OC)c21 [Compound 074] |
| ≤ 0.25 | ≤ 0.25 | C=CC(=O)N1CCN(c2cc3cnc(Nc4ccc(OCCN(C)C)c(F)c4)nc3n(C)c2=O)c2cccc(C)c21 [Compound 075] |
| ≤ 0.25 | ≤ 0.25 | C=CC(=O)N1CCN(c2cc3cnc(Nc4ccc(OC5CN(C)C5)cc4)nc3n(C)c2=O)c2cccc(C)c21 [Compound 076] |
| ≤ 0.25 | ≤ 0.25 | C=CC(=O)N1CCN(c2cc3cnc(Nc4ccc(OCCN(C)C)cc4)nc3n(C3CC(O)C3)c2=O)c2cccc(OC)c21 (centres unmarked) [Compound 077] |
| ≤ 0.25 | ≤ 0.25 | C=CC(=O)N1CCN(c2cc3cnc(Nc4ccc(OCCN(C)C)cc4)nc3n(C)c2=O)c2cc(O)ccc21 [Compound 078, 2-[4-[2-(dimethylamino)ethoxy]anilino]-6-(7-hydroxy-4-prop-2-enoyl-2,3-dihydroquinoxalin-1-yl)-8-methyl-pyrido[2,3-d]pyrimidin-7-one] |
| ≤ 0.25 | 0.5 to 2.5 | C=CC(=O)N1CCN(c2cc3cnc(N)nc3n(-c3ccc(OCCN(C)C)nc3)c2=O)c2cccc(C)c21 [Compound 079] |
| ≤ 0.25 | ≤ 0.25 | C=CC(=O)N1CCN(c2cc3cnc(N)nc3n(-c3ccc(OCCN(C)C)cc3)c2=O)c2cccc(C)c21 [Compound 080, 2-amino-8-[4-[2-(dimethylamino)ethoxy]phenyl]-6-(5-methyl-4-prop-2-enoyl-2,3-dihydroquinoxalin-1-yl)pyrido[2,3-d]pyrimidin-7-one] |
| ≤ 0.25 | ≤ 0.25 | C=CC(=O)N1CCN(c2cc3cnc(NC)nc3n(-c3ccc(OCCN(C)C)cc3)c2=O)c2cccc(C)c21 [Compound 081, 8-[4-[2-(dimethylamino)ethoxy]phenyl]-2-(methylamino)-6-(5-methyl-4-prop-2-enoyl-2,3-dihydroquinoxalin-1-yl)pyrido[2,3-d]pyrimidin-7-one] |
| ≤ 0.25 | ≤ 0.25 | C=CC(=O)N1CCN(c2cc3cnc(NC4CC4)nc3n(-c3ccc(OCCN(C)C)cc3)c2=O)c2cccc(C)c21 [Compound 082, 2-(cyclopropylamino)-8-[4-[2-(dimethylamino)ethoxy]phenyl]-6-(5-methyl-4-prop-2-enoyl-2,3-dihydroquinoxalin-1-yl)pyrido[2,3-d]pyrimidin-7-one] |
| ≥ 2.5 | ≥ 2.5 | C=CC(=O)N1CCN(c2cc3cnc(Nc4cc5n(c4)CCN(C)C5)nc3n(C)c2=O)c2cccc(C)c21 [Compound 085, 8-methyl-2-[(2-methyl-3,4-dihydro-1H-pyrrolo[1,2-a]pyrazin-7-yl)amino]-6-(5-methyl-4-prop-2-enoyl-2,3-dihydroquinoxalin-1-yl)pyrido[2,3-d]pyrimidin-7-one] |
| ≤ 0.25 | 0.25 to 0.5 | C=CC(=O)N1CCN(c2cc3cnc(N)nc3n(-c3cccc(OC)c3)c2=O)c2cccc(C)c21 [Compound 090] |
